Test results taken from patent publication US20200102264A1, “MARMELIN ANALOGS AND METHODS OF USE IN CANCER TREATMENT” (THE UNIVERSITY OF KANSAS, priority 2014, published 2020).

What was measured:
Format in all cases: cell-based
SW480 cells = test: cell cycle analysis, SW480; conditions: SW480, Table 3
Procedure: The analogs were tested to determine the ability induce death of colon cancer cells.

HCT116 cells = test: cell cycle analysis, HCT116; conditions: HCT116, Table 3
SW480 colon cancer cells = test: hexoseaminidase cell proliferation assay, SW480
Description: (§1) Using hexoseaminidase assay, we determined the effect of the compounds on cell proliferation. […]
(§2) Using hexoseaminidase assay, we determined the effect of the compounds on cell proliferation. […] […] […] Overall, the analogs can be used as chemotherapeutic agents against colon and pancreatic cancer.

[1] = system: MiaPaCa-2 pancreatic cancer cells; test: hexoseaminidase cell proliferation assay, MiaPaCa-2
Procedure: (§3) Using hexoseaminidase assay, we determined the effect of the compounds on cell proliferation. […] The IC50 value at 48 hours is below 10 μM in all the cancer cell lines.
(§4) Using hexoseaminidase assay, we determined the effect of the compounds on cell proliferation. […] The MRL16 IC50 value at 48 hours is below 0.3 μM in Colon cancer cell lines. […] Overall, the analogs can be used as chemotherapeutic agents against colon and pancreatic cancer.

[2] = system: PanC-1 pancreatic cancer cells; test: hexoseaminidase cell proliferation assay, PanC-1
Procedure: as §3, §4

[3] = system: HCT116 colon cancer cells; test: hexoseaminidase cell proliferation assay, HCT116
Description: as §1, §2

[4] = system: colon, pancreatic and bladder cancer cells; test: hexoseaminidase cell proliferation assay, summaries over cell lines; conditions: dose and time dependent
Procedure: Water solubility studies were performed with the CD/analog complexes. […] The observed IC50 value of THBCD at 48 h is below 10 μM in all the colon, pancreatic and bladder cancer cells.
as §3, §4

[5] = Homo sapiens, MIA PaCa-2, MiaPaCa-2, 24 h
[6] = Homo sapiens, MIA PaCa-2, MiaPaCa-2, 48 h
[7] = Homo sapiens, MIA PaCa-2, MiaPaCa-2, 72 h
[8] = Homo sapiens, HCT-116, HCT116, 24 h
[9] = Homo sapiens, HCT-116, HCT116, 48 h
[10] = Homo sapiens, HCT-116, HCT116, 72 h

Structure (SMILES)	IC50 (SW480 colon cancer cells; Homo sapiens, SW480, 24 h) [µM]	IC50 (SW480 colon cancer cells; Homo sapiens, SW480, 48 h) [µM]	IC50 (SW480 colon cancer cells; Homo sapiens, SW480, 72 h) [µM]	IC50 [1, 5] [µM]	IC50 [1, 6] [µM]	IC50 [1, 7] [µM]	IC50 ([2]; Homo sapiens, PANC-1, 24 h) [µM]	IC50 ([2]; Homo sapiens, PANC-1, 48 h) [µM]	IC50 ([2]; Homo sapiens, PANC-1, 72 h) [µM]	IC50 [3, 8] [µM]	IC50 [3, 9] [µM]	IC50 [3, 10] [µM]	IC50 (SW480 colon cancer cells; SW480, 48 h) [µM]	IC50 (SW480 colon cancer cells; SW480, 72 h) [µM]	IC50 ([1]; MiaPaCa-2, 24 h) [µM]	IC50 ([1]; MiaPaCa-2, 48 h) [µM]	IC50 ([1]; MiaPaCa-2, 72 h) [µM]	IC50 ([2]; PanC-1, 24 h) [µM]	IC50 ([2]; PanC-1, 72 h) [µM]	IC50 ([3]; HCT116, 48 h) [µM]	also measured
OC[C@H]1O[C@@H]2O[C@H]3[C@H](O)[C@@H](O)[C@@H](O[C@H]4[C@H](O)[C@@H](O)[C@@H](O[C@H]5[C@H](O)[C@@H](O)[C@@H](O[C@H]6[C@H](O)[C@@H](O)[C@@H](O[C@H]7[C@H](O)[C@@H](O)[C@@H](O[C@H]8[C@H](O)[C@@H](O)[C@@H](O[C@H]1[C@H](O)[C@H]2O)O[C@@H]8CO)O[C@@H]7CO)O[C@@H]6CO)O[C@@H]5CO)O[C@@H]4CO)O[C@@H]3CO [CD, β-cyclodextrin]	> 50	> 50	> 50	> 50	> 50	> 50	> 50	> 50	> 50	> 50	> 50	> 50	–	–	–	–	–	–	–	–	G0/G1 (%) (SW480 cells): 61.1%; G2M (%) (SW480 cells): 19.8%; S (%) (SW480 cells): 14.9%; SubG0 Dead Cells (%) (SW480 cells): 3.6%; G0/G1 (%) (HCT116 cells): 43.9%; G2M (%) (HCT116 cells): 10.9%; S (%) (HCT116 cells): 12.3%; SubG0 Dead Cells (%) (HCT116 cells): 31.0%
O=C(N/N=C/c1coc2ccccc2c1=O)c1cc2ccccc2cc1O [CMR]	–	–	–	–	–	–	–	–	–	–	–	–	> 50	> 50	> 50	> 50	> 50	> 50	> 50	> 50	IC50 (SW480 colon cancer cells; SW480, 24 h): > 50 µM; IC50 ([2]; PanC-1, 48 h): > 50 µM; IC50 ([3]; HCT116, 24 h): > 50 µM; IC50 ([3]; HCT116, 72 h): > 50 µM
C/C(=N\NC(=O)c1cc2ccccc2cc1O)c1cc2ccccc2oc1=O [COU]	> 50	> 50	> 50	> 50	> 50	> 50	> 50	> 50	> 50	> 50	> 50	> 50	–	–	–	–	–	–	–	–	–
CC(=O)c1ccc2ccccc2c1O [MRL15]	> 10	> 10	> 10	> 10	> 10	> 10	> 10	> 10	> 10	> 10	> 10	> 10	–	–	–	–	–	–	–	–	–
C/C(=N\NC(=O)c1ccccc1O)c1ccc2ccccc2c1O [MRL18]	> 10	5	3	> 10	> 10	10	> 10	4	2	> 10	3	1	–	–	–	–	–	–	–	–	inhibition of cell proliferation (in words) [4]: potent inhibitor
C/C(=N\NC(=O)c1ccccc1)c1ccc2ccccc2c1O [MRL19]	> 10	> 10	5	> 10	> 10	> 10	> 10	10	4	> 10	5	2.3	–	–	–	–	–	–	–	–	inhibition of cell proliferation (in words) [4]: potent inhibitor
C/C(=N\NC(=O)Cc1cc2ccccc2[nH]1)c1ccc2ccccc2c1O [MRL22]	> 10	> 10	> 10	> 10	> 10	> 10	> 10	> 10	> 10	> 10	> 10	> 10	–	–	–	–	–	–	–	–	–
NNC(=O)c1cc2ccccc2cc1O [MRL BDM]	–	–	–	–	–	–	–	–	–	–	–	–	> 50	> 50	> 50	> 50	> 50	> 50	> 50	> 50	IC50 (SW480 colon cancer cells; SW480, 24 h): > 50 µM; IC50 ([2]; PanC-1, 48 h): > 50 µM; IC50 ([3]; HCT116, 24 h): > 50 µM; IC50 ([3]; HCT116, 72 h): > 50 µM
O=C(N/N=C/c1ccc(F)c(F)c1)c1cc2ccccc2cc1O [MRL DFB]	–	–	–	–	–	–	–	–	–	–	–	–	20	18	> 50	25	17	> 50	20	25	IC50 (SW480 colon cancer cells; SW480, 24 h): > 50 µM; IC50 ([3]; HCT116, 24 h): > 50 µM; IC50 ([3]; HCT116, 72 h): 22 µM
O=C(N/N=C/c1ccc(F)cc1)c1cc2ccccc2cc1O [MRL MFB]	–	–	–	–	–	–	–	–	–	–	–	–	> 50	> 50	> 50	> 50	> 50	> 50	> 50	> 50	IC50 (SW480 colon cancer cells; SW480, 24 h): > 50 µM; IC50 ([2]; PanC-1, 48 h): > 50 µM; IC50 ([3]; HCT116, 24 h): > 50 µM; IC50 ([3]; HCT116, 72 h): > 50 µM
O=C(N/N=C/c1ccc(O)cc1)c1cc2ccccc2cc1O [MRL MHB]	–	–	–	–	–	–	–	–	–	–	–	–	> 50	> 50	> 50	> 50	> 50	> 50	> 50	> 50	IC50 (SW480 colon cancer cells; SW480, 24 h): > 50 µM; IC50 ([2]; PanC-1, 48 h): > 50 µM; IC50 ([3]; HCT116, 24 h): > 50 µM; IC50 ([3]; HCT116, 72 h): > 50 µM
O=C(N/N=C/c1cc(F)cc(F)c1)c1cc2ccccc2cc1O [MRL RFB]	–	–	–	–	–	–	–	–	–	–	–	–	40	35	> 50	40	35	> 50	40	35	IC50 ([2]; PanC-1, 48 h): 40 µM; IC50 ([3]; HCT116, 72 h): 35 µM
O=C(N/N=C/c1ccc(F)c(F)c1F)c1cc2ccccc2cc1O [MRL TFB]	–	–	–	–	–	–	–	–	–	–	–	–	> 50	> 50	> 50	> 50	> 50	> 50	> 50	> 50	IC50 (SW480 colon cancer cells; SW480, 24 h): > 50 µM; IC50 ([2]; PanC-1, 48 h): > 50 µM; IC50 ([3]; HCT116, 24 h): > 50 µM; IC50 ([3]; HCT116, 72 h): > 50 µM
O=C(N/N=C/c1ccc2ccccc2n1)c1cc2ccccc2cc1O [QNL]	> 50	> 50	> 50	> 50	> 50	25	> 50	> 50	> 50	> 50	> 50	20	–	–	–	–	–	–	–	–	–
